In patent publication EP4570805A1, “TRICYCLIC COMPOUNDS AND MEDICAL USE THEREOF” (Chia Tai Tianqing Pharmaceutical Group Co., Ltd., priority 2022, dated 2024):

Test system: Capan-1 cells
Assay: Inhibitory activity for Capan-1 cell proliferation (CCK-8)
Type: cell-based
Conditions: 5 days incubation
Protocol: Capan-1 cells in a well-growing state were collected into a centrifuge tube, adjusted to a cell density of 1.5 × 10^4 cells/mL, and inoculated onto a 96-well plate (100 µL/well). […] Meanwhile, a control was set. After 5 days of incubation in the cell incubator, the assay reagent CCK-8 (manufacturer: Dojindo Laboratories, Beijing; 10 µL/well) was added. After 4 h of incubation in the cell incubator, the absorbance was measured at 450 nm on a PerkinElmer Envision microplate reader. A four-parameter analysis was performed, a dose-response curve was fitted, and IC50 was calculated.

Compound | IC50 (Homo sapiens, CAPAN-1, 120 h) [nM] | IC50 [nM]
Cc1cccc(-c2nc3c4c(nc(OC[C@@H]5CCCN5C)nc4c2F)N(C(C)c2cccnc2N)[C@@H](C)CO3)c1C(F)(F)F (single isomer, unassigned) [Example 160] | < 100 | 
C#Cc1c(F)ccc2cc(O)cc(-c3nc4c5c(nc(OC[C@H](C)OC)nc5c3F)N(C(C)c3cccnc3N)[C@@H](C)CO4)c12 (single isomer, unassigned) [Example 73] | < 100 | 
[2H]C([2H])(Oc1nc2c3c(nc(-c4cc(O)cc5ccc(F)c(C#C)c45)c(F)c3n1)OC[C@H](C)N2C(C)c1cccnc1N)[C@@]12CCCN1C[C@H](F)C2 (single isomer, unassigned) [Example 72] |  | < 100
C#Cc1c(F)ccc2cc(O)cc(-c3nc4c5c(nc(OCC6(N)CC6)nc5c3F)N(C(C)c3cccnc3N)[C@@H](C)CO4)c12 (single isomer, unassigned) [Example 99] | < 100 | 
C#Cc1cccc2cccc(-c3nc4c5c(nc(OC[C@@]67CCCN6C[C@H](F)C7)nc5c3F)N(C(C)c3cccnc3N)[C@@H](C)CO4)c12 (single isomer, unassigned) [Example 131] |  | < 100
CC(c1cccnc1N)N1c2nc(OC[C@@]34CCCN3C[C@H](F)C4)nc3c(F)c(-c4ccc(F)c5sc(N)c(C#N)c45)nc(c23)OC[C@@H]1C (stereo partly shown) [Example 81] | < 100 | 
CC(c1cccnc1N)N1c2nc(OC[C@@]34CCCN3C[C@H](F)C4)nc3c(F)c(-c4cccc5ccc(F)c(F)c45)nc(c23)OC[C@@H]1C (single isomer, unassigned) [Example 120] | < 100 | 
C#Cc1c(F)ccc2cc(O)cc(-c3nc4c5c(nc(OC[C@@H]6C[C@@H](F)CN6C)nc5c3F)N(C(C)c3cccnc3N)[C@@H](C)CO4)c12 (single isomer, unassigned) [Example 147] |  | < 100
CC(c1cccnc1N)N1c2nc(OC[C@@]34CCCN3C[C@H](F)C4)nc3c(F)c(-c4ccc(F)c5sc(N)c(C#N)c45)nc(c23)OC[C@@H]1C (single isomer, unassigned) [Example 82] | < 100 | 
C#Cc1c(F)ccc2cc(O)cc(-c3nc4c5c(nc(OC[C@@]67CCCN6C[C@H](F)C7)nc5c3F)N(C(C)c3cccnc3N)[C@H](C)CO4)c12 (stereo partly shown) [Example 41] | < 100 | 
C#Cc1c(F)ccc2cc(O)cc(-c3nc4c5c(nc(OCCCN6CCOCC6)nc5c3F)N(C(C)c3cccnc3N)[C@@H](C)CO4)c12 (single isomer, unassigned) [Example 154] | < 100 | 
CC(c1cccnc1N)N1c2nc(OC[C@@]34CCCN3C[C@H](F)C4)nc3c(F)c(-c4cccc5ccccc45)nc(c23)OC[C@@H]1C (single isomer, unassigned) [Example 59] | < 100 | 
C#Cc1c(F)ccc2cc(O)cc(-c3nc4c5c(nc(OCc6nccn6C)nc5c3F)N(C(C)c3cccnc3N)[C@@H](C)CO4)c12 (single isomer, unassigned) [Example 93] | < 100 | 
CC(c1cccnc1N)N1c2nc(OC[C@@]34CCCN3C[C@H](F)C4)nc3c(F)c(-c4ccccc4C(F)(F)F)nc(c23)OC[C@@H]1C (single isomer, unassigned) [Example 61] | < 100 | 
C#Cc1c(F)ccc2cc(O)cc(-c3nc4c5c(nc(OC[C@@H](C)N6CCC6)nc5c3F)N(C(C)c3cccnc3N)[C@@H](C)CO4)c12 (single isomer, unassigned) [Example 174] | < 100 | 
CC(c1cccnc1N)N1c2nc(OC[C@@H]3CCCN3C)nc3c(F)c(-c4ccc(F)c5sc(N)c(C#N)c45)nc(c23)OC[C@@H]1C (single isomer, unassigned) [Example 158] | < 100 | 
C#Cc1c(F)ccc2cc(O)cc(-c3nc4c5c(nc(OC[C@@]67CCCN6C[C@H](F)C7)nc5c3F)N(CC(F)F)C(C)CO4)c12 (stereo partly shown) [Example 50] | < 100 | 
CC(c1cccnc1N)N1c2nc(OC[C@@]34CCCN3C[C@H](F)C4)nc3c(F)c(-c4cc(N)cc(Cl)c4C(F)(F)F)nc(c23)OC[C@@H]1C (single isomer, unassigned) [Example 63] | < 100 | 
C#Cc1c(F)ccc2cc(O)cc(-c3nc4c5c(nc(OCCN6CCOCC6)nc5c3F)N(C(C)c3cccnc3N)[C@@H](C)CO4)c12 (single isomer, unassigned) [Example 136] | < 100 | 
CC(c1cccnc1N)N1c2nc(OC[C@@]34CCCN3C[C@H](F)C4)nc3c(F)c(-c4cc(N)cc(Cl)c4C(F)(F)F)nc(c23)OC[C@@H]1C (single isomer, unassigned) [Example 64] |  | < 100
C#Cc1c(F)ccc2cc(O)cc(-c3nc4c5c(nc(OC[C@@H]6CN(C)CCN6C)nc5c3F)N(C(C)c3cccnc3N)[C@@H](C)CO4)c12 (single isomer, unassigned) [Example 109] | < 100 | 
C#Cc1c(F)ccc2cc(O)cc(-c3nc4c5c(nc(OCCN6CCN(C)CC6)nc5c3F)N(C(C)c3cccnc3N)[C@@H](C)CO4)c12 (single isomer, unassigned) [Example 168] | < 100 | 

Compound | IC50 (Homo sapiens, CAPAN-1, 120 h) [nM] | IC50 [nM]
C#Cc1c(F)ccc2cc(O)cc(-c3nc4c5c(nc(OCC(C)CN(C)C)nc5c3F)N(C(C)c3cccnc3N)[C@@H](C)CO4)c12 (single isomer, unassigned) [Example 144] | < 100 | 
CC(c1cccnc1N)N1c2nc(OC[C@@]34CCCN3C[C@H](F)C4)nc3c(F)c(-c4ccc(F)c5sc(N)nc45)nc(c23)OC[C@@H]1C (single isomer, unassigned) [Example 116] | < 100 | 
Cc1cccc(-c2nc3c4c(nc(OC[C@@]56CCCN5C[C@H](F)C6)nc4c2F)N(C(C)c2cccnc2N)[C@@H](C)CO3)c1N(C)C (single isomer, unassigned) [Example 128] | < 100 | 
C#Cc1c(F)ccc2cccc(-c3nc4c5c(nc(OC[C@@H]6CCCN6C)nc5c3F)N(C(C)c3cccnc3N)[C@@H](C)CO4)c12 (single isomer, unassigned) [Example 88] |  | < 100
C#Cc1c(F)ccc2cc(O)cc(-c3nc4c5c(nc(OCC6(CN7CCOCC7)CC6)nc5c3F)N(C(C)c3cccnc3N)[C@@H](C)CO4)c12 (single isomer, unassigned) [Example 70] |  | < 100
C#Cc1c(F)ccc2cc(O)cc(-c3nc4c5c(nc(OC[C@@H](C)OC)nc5c3F)N(C(C)c3cccnc3N)[C@@H](C)CO4)c12 (single isomer, unassigned) [Example 75] | < 100 | 
CC(c1cccnc1N)N1c2nc(OC[C@@]34CCCN3C[C@H](F)C4)nc3c(F)c(-c4ccccc4N(C)C)nc(c23)OC[C@@H]1C (single isomer, unassigned) [Example 57] | < 100 | 
C#Cc1c(F)ccc2cccc(-c3nc4c5c(nc(OCC67CCCN6CC(F)C7)nc5c3F)N(C(C)c3cccnc3N)C(C)CO4)c12 (single isomer, unassigned) [Example 48] |  | < 100
C#Cc1c(F)ccc2cc(O)cc(-c3nc4c5c(nc(OC)nc5c3F)N(C(C)c3cccnc3N)[C@@H](C)CO4)c12 (single isomer, unassigned) [Example 65] | < 100 | 
C#Cc1c(F)ccc2cc(O)cc(-c3nc4c5c(nc(OCCN6CCCCC6)nc5c3F)N(C(C)c3cccnc3N)[C@@H](C)CO4)c12 (single isomer, unassigned) [Example 166] | < 100 | 
C#Cc1c(F)ccc2cc(O)cc(-c3nc4c5c(nc(OC[C@@H]6COCCN6C)nc5c3F)N(C(C)c3cccnc3N)[C@@H](C)CO4)c12 (single isomer, unassigned) [Example 91] | < 100 | 
C#Cc1c(F)ccc2cc(O)cc(-c3nc4c5c(nc(OCCCN6CCN(C)CC6)nc5c3F)N(C(C)c3cccnc3N)[C@@H](C)CO4)c12 (single isomer, unassigned) [Example 170] | < 100 | 
C#Cc1c(F)ccc2cc(O)cc(-c3nc4c5c(nc(OCCCN6CCCC6)nc5c3F)N(C(C)c3cccnc3N)[C@@H](C)CO4)c12 (single isomer, unassigned) [Example 132] | < 100 | 
C#Cc1c(F)ccc2cc(O)cc(-c3nc4c5c(nc(OCC67CCCN6CC(F)C7)nc5c3F)N(C3CC3)C(C)CO4)c12 (single isomer, unassigned) [Example 45] | < 100 | 
Cc1cccc(-c2nc3c4c(nc(OCC56CCCN5CC(F)C6)nc4c2F)N(C(C)c2cccnc2N)C(C)CO3)c1C(F)(F)F (single isomer, unassigned) [Example 55] | < 100 | 
C#Cc1c(F)ccc2cc(O)cc(-c3nc4c5c(nc(OCCCN6CCCCC6)nc5c3F)N(C(C)c3cccnc3N)[C@@H](C)CO4)c12 (single isomer, unassigned) [Example 142] | < 100 | 
C#Cc1c(F)ccc2cc(O)cc(-c3nc4c5c(nc(OCC(C)(C)OC)nc5c3F)N(C(C)c3cccnc3N)[C@@H](C)CO4)c12 (single isomer, unassigned) [Example 77] | < 100 | 
C#Cc1c(F)ccc2cc(O)cc(-c3nc4c5c(nc(OC[C@@H]6COCCN6C)nc5c3F)N(C(C)c3cccnc3N)[C@@H](C)CO4)c12 (single isomer, unassigned) [Example 92] |  | < 100
C#Cc1c(F)ccc2cc(O)cc(-c3nc4c5c(ncnc5c3F)N(C(C)c3cccnc3N)[C@@H](C)CO4)c12 (single isomer, unassigned) [Example 89] | < 100 | 
C#Cc1c(F)ccc2cc(O)cc(-c3nc4c5c(nc(OC[C@@H](C)N(C)C)nc5c3F)N(C(C)c3cccnc3N)[C@@H](C)CO4)c12 (single isomer, unassigned) [Example 152] | < 100 | 
CC(c1cccnc1N)N1c2nc(OC[C@@]34CCCN3C[C@H](F)C4)nc3c(F)c(-c4cccc(F)c4N(C)C)nc(c23)OC[C@@H]1C (single isomer, unassigned) [Example 126] | < 100 | 
